Consider seven molecules from US8906925B2, “Pyrido[4,3-B]indoles containing rigid moieties” (Medivation Technologies, Inc., priority 2008, dated 2014).

The inhibition is the relative decrease from the control value, in per cent.

Values joined by “and” are separate entries in the source; they are usually repeats but may differ in a detail not shown here. Identical values can stand only once. Like-named read-outs stand apart in the source and are kept apart here.

The target in assay [1] is T1, human recombinant serotonin (5-Hydroxytryptamine) 5-HT2C receptor (Homo sapiens, UniProt P28335).
T1 construct: expressed in transfected cells; host or cells: Chinese hamster ovary (CHO-K1) cells
T1 sequence (P28335 33-458): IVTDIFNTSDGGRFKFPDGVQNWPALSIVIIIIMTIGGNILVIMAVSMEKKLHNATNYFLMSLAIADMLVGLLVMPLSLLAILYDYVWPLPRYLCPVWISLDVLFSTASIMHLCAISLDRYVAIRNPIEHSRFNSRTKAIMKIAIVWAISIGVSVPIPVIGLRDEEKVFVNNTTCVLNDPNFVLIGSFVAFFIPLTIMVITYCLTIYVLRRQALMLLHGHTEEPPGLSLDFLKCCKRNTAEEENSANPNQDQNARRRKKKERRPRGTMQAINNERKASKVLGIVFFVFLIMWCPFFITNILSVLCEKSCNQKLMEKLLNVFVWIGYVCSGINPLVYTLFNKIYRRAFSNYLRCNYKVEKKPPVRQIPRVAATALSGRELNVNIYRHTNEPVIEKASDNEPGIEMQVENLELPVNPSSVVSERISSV
The assay can be described thus: Serotonin 5-HT2C radioligand binding ([3H]Mesulergine). An outline of the steps: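 Compounds tested at 1 μM or lower (1% DMSO vehicle) for displacement of 1 nM [3H]Mesulergine over 60 min at 25° C. Specific binding determined by filtration counting, with 1 μM Mianserin defining non-specific binding; values are percent inhibition.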

The target in assay [2] is T2, human recombinant serotonin (5-Hydroxytryptamine) 5-HT2A receptor (Homo sapiens, UniProt P28223).
T2 construct: expressed in transfected cells; host or cells: Chinese hamster ovary (CHO-K1) cells
T2 sequence (P28223 whole entry): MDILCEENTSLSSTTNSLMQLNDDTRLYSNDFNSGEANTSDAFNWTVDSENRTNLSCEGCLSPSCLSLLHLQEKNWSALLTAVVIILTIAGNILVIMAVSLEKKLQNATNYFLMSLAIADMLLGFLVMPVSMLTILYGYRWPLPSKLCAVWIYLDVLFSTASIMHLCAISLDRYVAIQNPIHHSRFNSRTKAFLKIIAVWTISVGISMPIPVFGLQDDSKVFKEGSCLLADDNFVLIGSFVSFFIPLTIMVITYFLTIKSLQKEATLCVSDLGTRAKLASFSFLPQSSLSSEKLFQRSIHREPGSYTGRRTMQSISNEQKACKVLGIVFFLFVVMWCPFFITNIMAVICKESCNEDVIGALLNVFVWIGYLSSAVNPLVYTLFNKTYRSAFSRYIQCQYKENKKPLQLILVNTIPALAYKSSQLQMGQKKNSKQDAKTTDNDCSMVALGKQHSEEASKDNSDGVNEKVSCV
Description: Serotonin 5-HT2A radioligand binding ([3H]Ketanserin). The conditions noted are these: for inhibition at 1 µM: read-out: Inhibition of ligand binding, Serotonin 5-HT2A (percent inhibition of specific binding), compound at 1 μM; for inhibition at 0.1 µM: read-out: Inhibition of ligand binding, Serotonin 5-HT2A (percent inhibition of specific binding), compound at 0.1 μM. How it is done:
Compounds of the invention were incubated with 0.5 nM [^3H]Ketanserin for 60 min. at 25° C. Non-specific binding was estimated in the presence of 1 μM Mianserin. Receptor proteins were filtered and washed, the filters were then counted to determine [^3H]Ketanserin specifically bound.

In assay [3] the target is T3, human recombinant serotonin (5-Hydroxytryptamine) 5-HT6 receptor (Homo sapiens, UniProt P50406).
T3 construct: expressed in transfected cells; host or cells: human HeLa cells
T3 sequence (P50406 whole entry): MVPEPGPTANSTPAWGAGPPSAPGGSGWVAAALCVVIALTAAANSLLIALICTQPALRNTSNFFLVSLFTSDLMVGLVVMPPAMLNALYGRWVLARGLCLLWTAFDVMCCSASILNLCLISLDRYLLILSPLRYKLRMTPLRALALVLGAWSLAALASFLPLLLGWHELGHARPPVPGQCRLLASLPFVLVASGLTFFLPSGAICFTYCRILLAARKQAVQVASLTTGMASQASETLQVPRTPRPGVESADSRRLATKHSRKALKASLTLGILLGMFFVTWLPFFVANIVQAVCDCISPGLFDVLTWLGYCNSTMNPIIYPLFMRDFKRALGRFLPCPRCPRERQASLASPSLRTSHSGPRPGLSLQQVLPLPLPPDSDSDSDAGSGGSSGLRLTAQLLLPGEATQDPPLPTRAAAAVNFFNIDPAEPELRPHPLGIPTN
Description: Serotonin 5-HT6 radioligand binding ([3H]LSD). The conditions noted are these: for inhibition at 1 µM / Inhibition of ligand binding, Serotonin 5-HT6 (percent inhibition of specific binding): compound at 1 μM; for inhibition at 1 µM / inhibition at 0.1 µM: read-out: Inhibition of ligand binding, Serotonin 5-HT6 (percent inhibition of specific binding); for Inhibition of ligand binding, Serotonin 5-HT6 (percent inhibition of specific binding): 1 µM; for inhibition at 0.1 µM: compound at 0.1 μM. How it is done: Compounds of the invention were incubated with 1.5 nM [3H]Lysergic acid diethylamide (LSD) for 120 min. at 37° C. […] Receptor proteins were filtered and washed, the filters were then counted to determine [3H]LSD specifically bound. Compounds were screened at 1 μM or lower, using 1% DMSO as vehicle. Biochemical assay results are presented as the percent inhibition of specific binding in Table 10.

Assay [4] deals with T4, human recombinant adrenergic α1D receptor (Homo sapiens, UniProt P25100).
T4 construct: expressed in transfected cells; host or cells: human embryonic kidney (HEK-293) cells
T4 sequence (P25100 1-572): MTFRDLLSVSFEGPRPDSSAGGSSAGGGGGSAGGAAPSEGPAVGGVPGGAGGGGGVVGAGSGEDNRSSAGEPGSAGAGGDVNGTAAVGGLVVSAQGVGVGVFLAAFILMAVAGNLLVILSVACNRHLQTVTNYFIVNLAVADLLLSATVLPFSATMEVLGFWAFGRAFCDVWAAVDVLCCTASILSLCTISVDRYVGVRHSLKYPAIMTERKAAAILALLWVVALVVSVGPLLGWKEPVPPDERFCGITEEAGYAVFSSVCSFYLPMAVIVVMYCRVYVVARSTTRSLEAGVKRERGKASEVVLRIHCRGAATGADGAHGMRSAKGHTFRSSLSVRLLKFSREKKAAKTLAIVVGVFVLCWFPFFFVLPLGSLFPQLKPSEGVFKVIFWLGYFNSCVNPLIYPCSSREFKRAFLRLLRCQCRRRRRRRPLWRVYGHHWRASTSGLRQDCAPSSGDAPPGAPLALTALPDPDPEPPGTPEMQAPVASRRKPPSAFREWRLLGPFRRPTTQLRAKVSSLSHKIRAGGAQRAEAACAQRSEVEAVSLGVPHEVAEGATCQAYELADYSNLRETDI
The assay can be described thus: Adrenergic α1D radioligand binding ([3H]Prozosin). The note with it: compound at 1 μM. The protocol: Compounds of invention were incubated with 0.6 nM [^3H]Prozosin for 60 min. at 25° C. Non-specific binding was estimated in the presence of 10 μM phentolamine. Receptor proteins were filtered and washed, the filters were then counted to determine [^3H]Prozosin specifically bound. Compounds were screened at 1 μM or lower, using 1% DMSO as vehicle. Biochemical assay results are presented as the percent inhibition of specific binding in Table 9.

Assay [5] concerns the target human recombinant serotonin (5-Hydroxytryptamine) 5-HT7 receptor (Homo sapiens, UniProt P34969). Description: Serotonin 5-HT7 radioligand binding ([3H]LSD). The source says: Receptor proteins were filtered and washed, the filters were then counted to determine [^3H]LSD specifically bound.
Setting [6] is: compound at 1 μM, read-out: Inhibition of ligand binding, Serotonin 5-HT2C (percent inhibition of specific binding).
The mark [7] stands for this setting: percent inhibition of specific binding, read-out: Inhibition of ligand binding, Adrenergic α1D.
Setting [8] is: compound at 1 μM, read-out: Inhibition of ligand binding, Serotonin 5-HT7 (percent inhibition of specific binding).

Sequence of human recombinant serotonin (5-Hydroxytryptamine) 5-HT7 receptor (P34969 whole entry): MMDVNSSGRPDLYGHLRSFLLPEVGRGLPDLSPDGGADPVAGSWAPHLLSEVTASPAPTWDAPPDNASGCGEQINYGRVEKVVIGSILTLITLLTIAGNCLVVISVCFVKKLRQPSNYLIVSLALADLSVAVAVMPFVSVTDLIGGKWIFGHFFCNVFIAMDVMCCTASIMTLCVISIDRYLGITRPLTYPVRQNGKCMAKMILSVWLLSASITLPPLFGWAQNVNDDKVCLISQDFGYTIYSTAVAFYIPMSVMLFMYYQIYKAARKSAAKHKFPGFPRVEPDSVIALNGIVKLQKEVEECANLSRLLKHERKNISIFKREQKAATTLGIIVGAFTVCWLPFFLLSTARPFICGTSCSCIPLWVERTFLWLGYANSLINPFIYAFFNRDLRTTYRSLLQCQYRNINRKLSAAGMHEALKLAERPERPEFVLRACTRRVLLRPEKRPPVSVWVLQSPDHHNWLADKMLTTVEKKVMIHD

On to `C/C=C/C(=C\n1c2c(c3cc(Cl)ccc31)CN(C)CC2)c1ccc(F)cc1` [Compound 204, 8-chloro-5-((1E,3E)-2-(4-fluorophenyl)penta-1,3-dienyl)-2-methyl-2,3,4,5-tetrahydro-1H-pyrido[4,3-b]indole], for which the inhibition at 1 µM in assay [1] (setting [6]) came to 102%; in assay [2], 101%; in assay [3] it was 102%; in assay [4] (setting [7]), 67%; in assay [5] (setting [8]), 93%.

As for `Cc1ccc2c(c1)c1c(n2CC(O)(c2ccccc2)c2ccc(F)cc2)CCN(C)C1` (stereo not drawn) [Compound No. 176, 2-(2,8-dimethyl-3,4-dihydro-1H-pyrido[4,3-b]indol-5(2H)-yl)-1-(4-fluorophenyl)-1-phenylethanol], the inhibition at 1 µM was 99% in assay [1] (setting [6]); 97% in assay [2]; 82% in assay [3]; 42% in assay [4] (setting [7]); 65% in assay [5] (setting [8]).

For `C/C(=C\n1c2c(c3cc(Cl)ccc31)CN(C)CC2)c1ccc(Cl)cc1Cl` [Compound 210, (E)-8-chloro-5-(2-(2,4-dichlorophenyl)prop-1-enyl)-2-methyl-2,3,4,5-tetrahydro-1H-pyrido[4,3-b]indole], the “Inhibition of ligand binding, Serotonin 5-HT2C (percent inhibition of specific binding)” value in assay [1] (compound at 1 μM, 1 µM) turned out to be 99%. Moreover, the “Inhibition of ligand binding, Serotonin 5-HT2A (percent inhibition of specific binding)” value in assay [2] (compound at 1 μM, 1 µM) was determined as 98%. In addition, the “Inhibition of ligand binding, Serotonin 5-HT6 (percent inhibition of specific binding)” value in assay [3] was 76%. Moreover, the “Inhibition of ligand binding, Adrenergic α1D” value in assay [4] (percent inhibition of specific binding, 1 µM) worked out at 17%. Besides, in assay [5] (compound at 1 μM, 1 µM), the “Inhibition of ligand binding, Serotonin 5-HT7 (percent inhibition of specific binding)” value worked out at 65%.

Take `CN1CCc2c(c3cc(C(=O)O)ccc3n2C#Cc2ccc(F)cc2)C1` [Compound No. 482, 5-((4-fluorophenyl)ethynyl)-2-methyl-2,3,4,5-tetrahydro-1H-pyrido[4,3-b]indole-8-carboxylic acid]: the inhibition at 1 µM in assay [1] (setting [6]) was -12%; in assay [2] it was -8%; in assay [3], 4%; in assay [4] (read-out: Inhibition of ligand binding, Adrenergic α1D (percent inhibition of specific binding)), 21%; in assay [5] (setting [8]), 22%.

For `CCN1CCc2c(c3ccccc3n2CC(O)c2ccc(C)cc2)C1` (racemic) [Compound 44, racemic-2-(2-ethyl-1,2,3,4-tetrahydropyrido[4,3-b]indol-5-yl)-1-p-tolylethanol], the inhibition at 1 µM in assay [1] (setting [6]) came to 36%; in assay [2], 80%; in assay [3] it was 9%; in assay [4] (setting [7]), 35%; in assay [5] (setting [8]), 42%.

With `C/C(=C\n1c2c(c3cc(C)ccc31)CN(C)CC2)c1ccncc1` [Compound 88, (E)-2,3,4,5-tetrahydro-2,8-dimethyl-5-(2-(pyridin-4-yl)prop-1-enyl)-1H-pyrido[4,3-b]indole], the “Inhibition of ligand binding, Serotonin 5-HT2C (percent inhibition of specific binding)” value in assay [1] (compound at 0.1 μM, 0.1 µM) is 74% and 96%; in assay [1] (compound at 1 μM, 1 µM), 100%. For the same molecule, the inhibition at 1 µM worked out at 99% in assay [1] (setting [6]); 98% in assay [2]; 102% in assay [3]; 78% in assay [4] (setting [7]); 93% in assay [5] (setting [8]). Also, the “Inhibition of ligand binding, Serotonin 5-HT2A (percent inhibition of specific binding)” value in assay [2] (compound at 0.1 μM, 0.1 µM) was 95%; in assay [2] (compound at 1 μM, 1 µM), 101%. The inhibition at 0.1 µM in assay [2] amounted to 87%; in assay [3] it was 82%. In addition, in assay [3], the “Inhibition of ligand binding, Serotonin 5-HT6 (percent inhibition of specific binding)” value was found to be 103%. In assay [5] (compound at 0.1 μM, 0.1 µM), the “Inhibition of ligand binding, Serotonin 5-HT7 (percent inhibition of specific binding)” value was 75% and 97%.

As to `CN1CCc2c(c3cc(Cl)ccc3n2CC(O)(c2ccc(F)cc2)C2CC2)C1` (stereo not drawn) [Compound 82, 2-(8-chloro-1,2,3,4-tetrahydro-2-methylpyrido[4,3-b]indol-5-yl)-1-cyclopropyl-1-(4-fluorophenyl)ethanol], the inhibition at 0.1 µM in assay [1] (compound at 0.1 μM, read-out: Inhibition of ligand binding, Serotonin 5-HT2C (percent inhibition of specific binding)) was determined as 94%; in assay [2], 92%; in assay [3] it was 90%; in assay [5] (compound at 0.1 μM, read-out: Inhibition of ligand binding, Serotonin 5-HT7 (percent inhibition of specific binding)), 86%. The inhibition at 1 µM worked out at 105% in assay [1] (setting [6]); 100% in assay [2]; 103% in assay [3]; 62% in assay [4] (setting [7]); 93% in assay [5] (setting [8]). Moreover, the “Inhibition of ligand binding, Serotonin 5-HT7 (percent inhibition of specific binding)” value in assay [5] (compound at 0.1 μM, 0.1 µM) is recorded as 95%.
